For the experiment, the system named is BDF1 mice, B16 melanoma ip, median survival T/C. The experiment can be described thus: NCI In Vivo Anticancer Drug Screen. Data for tumor model B16 Melanoma (intraperitoneal) in B6D2F1 (BDF1) mice. The settings on record: endpoint: median survival time, higher = longer survival. In a few lines:
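Values are ratios of treated (T) to vehicle-control (C) measurements of survival or tumor size in tumor-bearing mice.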

Where [1] appears, read: dose: 50.0 mg/kg/injection, schedule: Q01DX009 (ip), vehicle: saline.
The mark [2] stands for this setting: dose: 200.0 mg/kg/injection, schedule: Q01DX009 (ip), vehicle: saline.
Setting [3] is: dose: 100.0 mg/kg/injection, schedule: Q01DX009 (ip), vehicle: saline.
[4] abbreviates: dose: 50.0 mg/kg/injection, schedule: Q01DX009 (ip), vehicle: Klucel (hydroxypropylcellulose) (HPC).
The mark [5] stands for this setting: dose: 100.0 mg/kg/injection, schedule: Q01DX009 (ip), vehicle: Klucel (hydroxypropylcellulose) (HPC).
The mark [6] stands for this setting: dose: 200.0 mg/kg/injection, schedule: Q01DX009 (ip), vehicle: Klucel (hydroxypropylcellulose) (HPC).
[7] abbreviates: dose: 25.0 mg/kg/injection, schedule: Q01DX009 (ip), vehicle: Klucel (hydroxypropylcellulose) (HPC).
[8] abbreviates: dose: 6.25 mg/kg/injection, schedule: Q01DX009 (ip), vehicle: saline with Tween-80.
The mark [9] stands for this setting: dose: 12.5 mg/kg/injection, schedule: Q01DX009 (ip), vehicle: saline with Tween-80.
Where [10] appears, read: dose: 12.5 mg/kg/injection, schedule: Q01DX009 (ip), vehicle: Klucel (hydroxypropylcellulose) (HPC).
[11] abbreviates: dose: 25.0 mg/kg/injection, schedule: Q01DX009 (ip), vehicle: saline with Tween-80.
Setting [12] is: dose: 50.0 mg/kg/injection, schedule: Q01DX009 (ip), vehicle: saline with Tween-80.

Several values for one entry are separate records, joined by “and”; a condition that tells them apart may be missing. Identical values can stand only once. Toxic doses and inconclusive results are not listed.

Turning to `CO[C@H]1/C=C/O[C@@]2(C)Oc3c(C)c(O)c4c(O)c(c(/C=N/N5C(C)CN(Cc6ccccc6)CC5C)c(O)c4c3C2=O)NC(=O)/C(C)=C\C=C\[C@H](C)[C@H](O)[C@@H](C)[C@@H](O)[C@@H](C)[C@H](OC(C)=O)[C@@H]1C` (stereo partly drawn), the T/C (dose: 8.0 mg/kg/injection, schedule: Q03HX008 (ip), vehicle: clinical formulation) is 94 % of control; the T/C (dose: 8.0 mg/kg/injection, schedule: Q03HX024 (ip), vehicle: clinical formulation) was 88 % of control; the T/C (dose: 16.0 mg/kg/injection, schedule: Q03HX008 (ip), vehicle: clinical formulation) is 90 % of control; the T/C (dose: 25.0 mg/kg/injection, schedule: Q02DX Z (oral), vehicle: Klucel (hydroxypropylcellulose) (HPC)) was 98 % of control; the T/C (dose: 32.0 mg/kg/injection, schedule: Q03HX024 (ip), vehicle: clinical formulation) was 88 % of control; the T/C under setting [1] is 123 % of control. Further, the T/C by setting is: (dose: 50.0 mg/kg/injection, schedule: Q02DX Z (oral), vehicle: Klucel (hydroxypropylcellulose) (HPC)) 116 % of control; (dose: 64.0 mg/kg/injection, schedule: Q04DX005 (ip), vehicle: clinical formulation) 93 % of control; (dose: 64.0 mg/kg/injection, schedule: Q08DX003 (ip), vehicle: clinical formulation) 91 % of control; (dose: 100.0 mg/kg/injection, schedule: Q02DX Z (oral), vehicle: Klucel (hydroxypropylcellulose) (HPC)) 103 % of control; under setting [2], 110 % of control; (dose: 200.0 mg/kg/injection, schedule: Q02DX Z (oral), vehicle: Klucel (hydroxypropylcellulose) (HPC)) 114 % of control. For the same compound, the T/C by setting is: (dose: 256.0 mg/kg/injection, schedule: Q01DX001 (ip), vehicle: clinical formulation) 86 % of control; (dose: 400.0 mg/kg/injection, schedule: Q02DX Z (oral), vehicle: Klucel (hydroxypropylcellulose) (HPC)) 88 % of control; (dose: 800.0 mg/kg/injection, schedule: Q02DX Z (oral), vehicle: Klucel (hydroxypropylcellulose) (HPC)) 113 % of control; (dose: 1600.0 mg/kg/injection, schedule: Q02DX Z (oral), vehicle: Klucel (hydroxypropylcellulose) (HPC)) 97 % of control.
On to `CC(=O)CC(=O)NCc1ccncc1`, for which the T/C under setting [3] was 118 % of control; the T/C under setting [2] is 112 % of control; the T/C (dose: 400.0 mg/kg/injection, schedule: Q01DX009 (ip), vehicle: saline) is 116 % of control.
With `CC(=O)Nc1ccn(C2OC(COC(C)=O)C(OC(C)=O)C2OC(C)=O)c(=O)n1` (stereo not drawn), the T/C reads like this: (dose: 150.0 mg/kg/injection, schedule: Q01DX009 (ip), vehicle: saline with Tween-80) 103 % of control; (dose: 300.0 mg/kg/injection, schedule: Q01DX009 (ip), vehicle: saline with Tween-80) 114 % of control; (dose: 600.0 mg/kg/injection, schedule: Q01DX009 (ip), vehicle: saline with Tween-80) 119 % of control; (dose: 1200.0 mg/kg/injection, schedule: Q01DX009 (ip), vehicle: saline with Tween-80) 123 % of control.
With `CC(C)C(=O)[O][Sn]([CH3])([CH3])[CH3]`, the T/C runs as follows: (dose: 0.19 mg/kg/injection, schedule: Q01DX009 (ip), vehicle: saline) 107 % of control; (dose: 0.38 mg/kg/injection, schedule: Q01DX009 (ip), vehicle: saline) 105 % of control; (dose: 0.75 mg/kg/injection, schedule: Q01DX009 (ip), vehicle: saline) 100 % of control.
In the case of `O=C(O)c1ccccc1C(=O)Nc1ccc([N+](=O)[O-])cc1Cl`, the T/C under setting [4] is 93 % of control, the T/C under setting [5] was 100 % of control and the T/C under setting [6] is 96 % of control.
For the compound `O=C1C=CC2(CCC23C=CC(=O)O3)O1` (stereo not drawn), the T/C is 87 % of control (dose: 7.5 mg/kg/injection, schedule: Q01DX009 (ip), vehicle: Klucel (hydroxypropylcellulose) (HPC)); 93 % of control (dose: 15.0 mg/kg/injection, schedule: Q01DX009 (ip), vehicle: Klucel (hydroxypropylcellulose) (HPC)); 92 % of control (dose: 30.0 mg/kg/injection, schedule: Q01DX009 (ip), vehicle: Klucel (hydroxypropylcellulose) (HPC)).
Regarding `CNC(=S)NCc1ccc(C(=O)NC(C)C)cc1`, the T/C was 101 % of control under setting [7], 99 % of control under setting [4], 118 % of control under setting [5] and 118 % of control under setting [6].
In the case of `CCOc1ccc2c(ccc(/C=C\c3cc(C)c4cccnc4c3O)[n+]2C)c1`, the T/C was 102 % of control under setting [8] and 101 % of control under setting [9].
On to `COc1ccc2c(c1O)-c1cccc3c1[C@@H](C2)N(CCCl)CC3`, for which the T/C runs as follows: (dose: 4.0 mg/kg/injection, schedule: Q01DX009 (ip), vehicle: saline) 91 % of control and 116 % of control; (dose: 8.0 mg/kg/injection, schedule: Q01DX009 (ip), vehicle: saline) 97 % of control and 120 % of control; (dose: 16.0 mg/kg/injection, schedule: Q01DX009 (ip), vehicle: saline) 97 % of control and 111 % of control.
As for `CCNC(Cc1ccccc1)c1ccc(OC)cc1` (stereo not drawn), the T/C is 106 % of control under setting [10], 100 % of control under setting [7] and 113 % of control under setting [4].
As for `CCOC(=O)CCCc1ccc(N=NN(C)C)cc1`, the T/C (dose: 1.56 mg/kg/injection, schedule: Q01DX009 (ip), vehicle: saline with Tween-80) was 102 % of control; the T/C (dose: 3.13 mg/kg/injection, schedule: Q01DX009 (ip), vehicle: saline with Tween-80) is 105 % of control; the T/C under setting [8] was 100 % of control.
`CC1(c2ccc(O)cc2)CCC(C(C)(C)c2ccc(O)cc2)CC1` (stereo not drawn): the T/C reads like this: under setting [4], 87 % of control; under setting [5], 96 % of control; under setting [6], 91 % of control.
`N=C(N)Sc1cc(O)ccc1O`: the T/C under setting [1] is 105 % of control, the T/C under setting [3] is 94 % of control and the T/C under setting [2] was 91 % of control.
As to `COC1=C(N=[N+]=[N-])C(=O)C(OC)=C(N=[N+]=[N-])C1=O`, the T/C reads like this: under setting [10], 111 % of control; under setting [7], 95 % of control; under setting [4], 94 % of control; under setting [5], 91 % of control.
As for `Cc1cc(NC(=O)CCc2ccc(N3C(N)=NC(N)=NC3(C)C)cc2)ccc1S(=O)(=O)F`, the T/C is 118 % of control (dose: 50.0 mg/kg/injection, schedule: Q01DX009 (ip), vehicle: saline sonified); 94 % of control (dose: 100.0 mg/kg/injection, schedule: Q01DX009 (ip), vehicle: saline sonified); 100 % of control (dose: 200.0 mg/kg/injection, schedule: Q01DX009 (ip), vehicle: saline sonified).
Turning to `C[C@]12CCC(=O)C=C1CC[C@@H]1[C@@H]2C(=O)C[C@@]2(C)[C@H]1CC[C@]2(O)C(=O)CO`, the T/C runs as follows: (dose: 40.0 mg/kg/injection, schedule: Q02DX009 (ip), vehicle: Klucel (hydroxypropylcellulose) (HPC)) 100 % of control; (dose: 80.0 mg/kg/injection, schedule: Q02DX009 (ip), vehicle: Klucel (hydroxypropylcellulose) (HPC)) 112 % of control; (dose: 160.0 mg/kg/injection, schedule: Q02DX009 (ip), vehicle: Klucel (hydroxypropylcellulose) (HPC)) 97 % of control; (dose: 640.0 mg/kg/injection, schedule: Q02DX009 (ip), vehicle: Klucel (hydroxypropylcellulose) (HPC)) 97 % of control.
In the case of `C/C(=C\c1ccc(C)cc1)[N+](=O)[O-]`, the T/C by setting is: under setting [11], 89 % of control; under setting [12], 96 % of control.
As for `O=C(Nc1ccc([N+](=O)[O-])cc1)Nc1nccs1`, the T/C (dose: 50.0 mg/kg/injection, schedule: Q01DX009 (ip), vehicle: distilled water + Tween-80) was 152 % of control.
Turning to `COc1cccc2c1cc([N+](=O)[O-])c1c(C(=O)O)cc3c(c12)OCO3`, the T/C is 106 % of control (dose: 2.5 mg/kg/injection, schedule: Q01DX009 (ip), vehicle: Klucel (hydroxypropylcellulose) (HPC)); 111 % of control (dose: 5.0 mg/kg/injection, schedule: Q01DX009 (ip), vehicle: Klucel (hydroxypropylcellulose) (HPC)); 94 % of control (dose: 10.0 mg/kg/injection, schedule: Q01DX009 (ip), vehicle: Klucel (hydroxypropylcellulose) (HPC)).
For the compound `N=C(N)c1ccc(N=NNc2ccc(C(=N)N)cc2)cc1`, the T/C was 101 % of control under setting [9], 112 % of control under setting [11] and 114 % of control under setting [12].

For the origin of these results see PubChem BioAssay AID192 (DTP/NCI, 2004).
